Measurements taken from patent publication US20060188566A1, “Nanoparticulate formulations of docetaxel and analogues thereof” (Elan Pharma International Limited, priority 2005, published 2006).

Key:
[1] = cited from earlier work
[2] = test system: COX-2 expression in human monocytes; conditions: human monocytes / human cells; cited from earlier work
[3] = cited from earlier work; remark: listed apart in the source
[4] = test system: plasma proteins, primarily albumin, α1-acid glycoproteins, and lipoproteins; conditions: in vitro; cited from earlier work
[5] = Particle size of unmilled (conventional, non-nanoparticulate) docetaxel; assay type: physicochemical
From the text: Unmilled trihydrate docetaxel has a mean particle size of 61,610 nm, with a D50 of 51,060 nm and a D90 of 119,690 nm.

[6] = test system: COX-2 expression in murine cells; conditions: cited from earlier work
[7] = phase I trial; cited from earlier work
[8] = test system: mice; conditions: mouse, in vivo, iv
Method: The purpose of this experiment was to determine the maximum tolerated dose of a nanoparticulate docetaxel formulation.
To evaluate and characterize the acute toxicity of nanoparticulate docetaxel formulations, two nanoparticulate dispersions were utilized.
Both nanoparticulate docetaxel formulations were administered intravenously at various doses to mice.
The commercially available non-nanoparticulate docetaxel product, TAXOTERE®, was also tested in parallel with the nanoparticulate docetaxel formulations.

[9] = test system: microtubules; conditions: compared with docetaxel; cited from earlier work
[10] = IV administration of a 100-mg/m^2 dose, SD=0.8
[11] = intravenous doses of 70 mg/m^2 to 115 mg/m^2, 3-compartment model, TAXOTERE®

For `CC(=O)O[C@@]12CO[C@@H]1C[C@H](O)[C@@]1(C)C(=O)[C@H](O)C3=C(C)[C@@H](OC(=O)[C@H](O)[C@@H](NC(=O)OC(C)(C)C)c4ccccc4)C[C@@](O)([C@@H](OC(=O)c4ccccc4)[C@H]21)C3(C)C` [docetaxel, (2R, 3S)-N-carboxy-3-phenylisoserine, N-tert-butyl ester, 13-ester with 5β-20-epoxy-1, 2α, 4, 7β, 10β, 13α-hexahydroxytax-11-en-9-one 4-acetate 2-benzoate, trihydrate], the AUC [1, 10] is given as 4600 ng·h/mL, the “mean peak plasma level” value [1, 10] is given as 3.7 µg/mL and the “steady-state volume of distribution (mean)” value ([1]; cancer patients, IV) is given as 113 L. For the same compound, the “mean population α half-life” value [1, 11] was 4 min, the “mean population β half-life” value [1, 11] was 36 min and the “mean population γ half-life” value [1, 11] was 666 min. The COX-2 expression induction [2] was “induces COX-2 expression only in human monocytes”, the “solubility in water (in words)” value [3] was “practically insoluble in water” and the “bound to plasma proteins” value [4] was “approximately 94%”.
For `CC(=O)O[C@@]12CO[C@@H]1C[C@H](O)[C@@]1(C)C(=O)[C@H](O)C3=C(C)[C@@H](OC(=O)[C@H](O)[C@@H](NC(=O)OC(C)(C)C)c4ccccc4)C[C@@](O)([C@@H](OC(=O)c4ccccc4)[C@H]21)C3(C)C` [Unmilled trihydrate docetaxel, docetaxel], the D50 [5] was 51,060 nm, the D90 [5] was 119,690 nm and the mean particle size [5] was 61,610 nm.
With `CC(=O)O[C@@]12CO[C@@H]1C[C@H](O)[C@@]1(C)C(=O)[C@H](O)C3=C(C)[C@@H](OC(=O)[C@H](O)[C@@H](NC(=O)OC(C)(C)C)c4ccccc4)C[C@@](O)([C@@H](OC(=O)c4ccccc4)[C@H]21)C3(C)C` [unmilled docetaxel (anhydrous), docetaxel] the D50 [5] was 175,530 nm, the D90 [5] was 435,810 nm and the mean particle size [5] was 212,060 nm.
In the case of paclitaxel, the COX-2 expression induction [6] is listed as “paclitaxel-induced COX-2 expression”, the COX-2 expression induction [2] is listed as “paclitaxel-induced COX-2 expression” and the “pharmacokinetic profile (linearity)” value [7] is listed as “nonlinear pharmacokinetics”.
With TAXOTERE® the “maximum tolerated dose (MD)” value [8] was 40 mg/kg.
In the case of `CC(=O)OC12COC1CC(O)C1(C)C(=O)C(O)C3=C(C)C(OC(=O)C(O)C(NC(=O)OC(C)(C)C)C4CCCCC4)CC(O)(C(OC(=O)c4ccccc4)C21)C3(C)C` (stereo not drawn) [3′-dephenyl-3′-cyclohexyldocetaxel], the “inhibitory activity for microtubule disassembly” value [9] is given as “strong inhibitory activity for microtubule disassembly equivalent to docetaxel”.
For `CC(=O)OC12COC1CC(O)C1(C)C(=O)C(O)C3=C(C)C(OC(=O)C(O)C(NC(=O)OC(C)(C)C)c4ccccc4)CC(O)(C(OC(=O)C4CCCCC4)C21)C3(C)C` (stereo not drawn) [2-(hexahydro)docetaxel], the “inhibitory activity for microtubule disassembly” value [9] is given as “strong inhibitory activity for microtubule disassembly equivalent to docetaxel”.
